Data on eleven compounds can be found in the supplement of paper PMC10307832.

Common to all, as to test: relative viability (nuclei count vs DMSO), 5 days (fraction); higher = more cells survive
For assay [1], the system named is NCI-H1299. A digest of the protocol:
(§1)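 Lung cancer cell lines, seeded in 1536-well plates, were treated the following day by pin tool with a single drug or with five library-drug doses (not always all listed) in √10 steps on top of a fixed anchor-drug dose. Cells were fixed and nuclei stained in one step after 5 days, and nuclei were counted. Relative viability is the nuclei count for treated wells divided by that for vehicle wells, reported as medians of duplicate plates.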

The test system of assay [2] is NCI-H1703. In a few lines: as §1
For assay [3], the system named is Calu-6. A digest of the protocol:
as §1

Assay [4] has as its system A549. In a few lines: as §1
In assay [5] the test system is NCI-H1648. In a few lines: as §1
Assay [6] has as its system NCI-H1623. In a few lines: as §1

Turning to `CCCCCCCCCCCC1=C(O)C(=O)C=C(O)C1=O` [Embelin] + C[C@@H](Oc1cc(-c2cnn(C3CCNCC3)c2)cnc1N)c1c(Cl)ccc(F)c1Cl [Crizotinib] (partner 1 µM), the relative viability in assay [1] (first compound 0.08 µM) worked out at 0.954; in assay [1] (first compound 0.8 µM) it was 1.02; in assay [1] (first compound 2.53 µM), 0.963; in assay [1] (first compound 8 µM), 0.94; in assay [2] (first compound 0.08 µM), 0.8; in assay [2] (first compound 0.8 µM), 1.17. Also, the relative viability was 0.806 in assay [2] (first compound 2.53 µM); 0.975 in assay [2] (first compound 8 µM); 0.738 in assay [3] (first compound 0.08 µM); 0.854 in assay [3] (first compound 0.8 µM); 0.822 in assay [3] (first compound 2.53 µM); 0.692 in assay [3] (first compound 8 µM). For the same compound, the relative viability in assay [4] (first compound 0.08 µM) was 0.834; in assay [4] (first compound 0.8 µM) it was 0.81; in assay [4] (first compound 2.53 µM) it was 0.987; in assay [4] (first compound 8 µM), 0.915.
For `CCCCCCCCCCCC1=C(O)C(=O)C=C(O)C1=O` [Embelin] + C[C@]1(O)C[C@@H](c2nc(-c3ccc4ccc(-c5ccccc5)nc4c3)c3c(N)nccn32)C1 [Linsitinib] (partner 1 µM), the relative viability was 0.93 in assay [1] (first compound 0.08 µM); 1.04 in assay [1] (first compound 0.8 µM); 1.06 in assay [1] (first compound 2.53 µM); 0.938 in assay [1] (first compound 8 µM); 0.983 in assay [2] (first compound 0.08 µM); 0.634 in assay [2] (first compound 2.53 µM). Besides, the relative viability came out at 0.599 in assay [2] (first compound 8 µM); 0.993 in assay [3] (first compound 0.08 µM); 1.1 in assay [3] (first compound 0.8 µM); 0.981 in assay [3] (first compound 2.53 µM); 0.959 in assay [3] (first compound 8 µM); 0.546 in assay [4] (first compound 0.08 µM). For the same compound, the relative viability in assay [4] (first compound 0.8 µM) was determined as 0.717; in assay [4] (first compound 2.53 µM), 0.582; in assay [4] (first compound 8 µM) it was 0.456.
On to `CCCCCCCCCCCC1=C(O)C(=O)C=C(O)C1=O` [Embelin] + Cc1cc(Nc2cc(N3CCN(C)CC3)nc(Sc3ccc(NC(=O)C4CC4)cc3)n2)n[nH]1 [Tozasertib] (partner 0.1 µM), for which the relative viability was determined as 0.472 in assay [5] (first compound 0.08 µM); 0.627 in assay [5] (first compound 0.8 µM); 0.366 in assay [5] (first compound 2.53 µM); 0.582 in assay [5] (first compound 8 µM); 0.44 in assay [6] (first compound 0.08 µM); 0.412 in assay [6] (first compound 0.8 µM). Besides, the relative viability in assay [6] (first compound 2.53 µM) was found to be 0.45; in assay [6] (first compound 8 µM), 0.423.
On to `CCCCCCCCCCCC1=C(O)C(=O)C=C(O)C1=O` [Embelin] + Cc1nc(NC(=O)N2CCC[C@H]2C(N)=O)sc1-c1ccnc(C(C)(C)C(F)(F)F)c1 [Alpelisib] (partner 2 µM), for which the relative viability in assay [1] (first compound 0.08 µM) was 1.08; in assay [1] (first compound 0.8 µM) it was 1.07; in assay [1] (first compound 2.53 µM), 1.07; in assay [1] (first compound 8 µM) it was 1.11; in assay [2] (first compound 0.08 µM), 0.428; in assay [2] (first compound 0.8 µM), 0.436. The relative viability came out at 0.309 in assay [2] (first compound 2.53 µM); 0.238 in assay [2] (first compound 8 µM); 0.983 in assay [3] (first compound 0.08 µM); 0.935 in assay [3] (first compound 0.8 µM); 0.978 in assay [3] (first compound 2.53 µM); 0.893 in assay [3] (first compound 8 µM). The relative viability was 0.901 in assay [4] (first compound 0.08 µM), 0.794 in assay [4] (first compound 0.8 µM), 0.837 in assay [4] (first compound 2.53 µM) and 0.728 in assay [4] (first compound 8 µM).
As for `CCCCCCCCCCCC1=C(O)C(=O)C=C(O)C1=O` [Embelin] + Cc1nc(Nc2ncc(C(=O)Nc3c(C)cccc3Cl)s2)cc(N2CCN(CCO)CC2)n1 [Dasatinib] (partner 0.075 µM), the relative viability was 0.554 in assay [6] (first compound 0.08 µM), 0.542 in assay [6] (first compound 0.8 µM), 0.534 in assay [6] (first compound 2.53 µM) and 0.555 in assay [6] (first compound 8 µM).
Turning to `CCCCCCCCCCCC1=C(O)C(=O)C=C(O)C1=O` [Embelin] + N=C(N)NC(=N)NCCc1ccccc1 [Phenformin] (partner 250 µM), the relative viability in assay [4] (first compound 0.08 µM) was 0.204; in assay [4] (first compound 0.8 µM), 0.167; in assay [4] (first compound 2.53 µM) it was 0.185; in assay [4] (first compound 8 µM), 0.0745; in assay [6] (first compound 0.08 µM) it was 0.601; in assay [6] (first compound 0.8 µM) it was 0.612. Besides, the relative viability in assay [6] (first compound 2.53 µM) turned out to be 0.62; in assay [6] (first compound 8 µM) it was 0.602.
With `CCCCCCCCCCCC1=C(O)C(=O)C=C(O)C1=O` [Embelin] + NC(=O)Nc1cc(-c2cccc(F)c2)sc1C(=O)N[C@H]1CCCNC1 [AZD7762] (partner 0.2 µM), the relative viability in assay [5] (first compound 0.08 µM) was determined as 0.598; in assay [5] (first compound 0.8 µM) it was 0.689; in assay [5] (first compound 2.53 µM), 0.628; in assay [5] (first compound 8 µM) it was 0.709; in assay [2] (first compound 0.08 µM), 0.132; in assay [2] (first compound 0.8 µM), 0.166. The results for the relative viability in assay [2] (first compound 2.53 µM) and in assay [2] (first compound 8 µM) were 0.131 and 0.143, respectively.
Take `CCCCCCCCCCCC1=C(O)C(=O)C=C(O)C1=O` [Embelin] + Nc1nc2[nH]cc(CCc3ccc(C(=O)N[C@@H](CCC(=O)O)C(=O)O)cc3)c2c(=O)[nH]1 [Pemetrexed] (partner 0.2 µM): the relative viability amounted to 0.682 in assay [5] (first compound 0.08 µM), 0.675 in assay [5] (first compound 0.8 µM), 0.776 in assay [5] (first compound 2.53 µM) and 0.662 in assay [5] (first compound 8 µM).
Turning to `CCCCCCCCCCCC1=C(O)C(=O)C=C(O)C1=O` [Embelin] + Nc1ncn([C@H]2C[C@H](O)[C@@H](CO)O2)c(=O)n1 [Decitabine] (partner 2 µM), the relative viability was 0.577 in assay [5] (first compound 0.08 µM); 0.549 in assay [5] (first compound 0.8 µM); 0.548 in assay [5] (first compound 2.53 µM); 0.365 in assay [5] (first compound 8 µM); 0.303 in assay [4] (first compound 0.08 µM); 0.252 in assay [4] (first compound 0.8 µM). Moreover, the relative viability in assay [4] (first compound 2.53 µM) was 0.326; in assay [4] (first compound 8 µM), 0.277.
Consider `CCCCCCCCCCCC1=C(O)C(=O)C=C(O)C1=O` [Embelin] + O=C(CCCCCCC(=O)Nc1ccccc1)NO [Vorinostat] (partner 1 µM), for which the relative viability was 0.464 in assay [5] (first compound 0.08 µM), 0.908 in assay [5] (first compound 0.8 µM), 0.487 in assay [5] (first compound 2.53 µM) and 0.699 in assay [5] (first compound 8 µM).
As to `CCCCCCCCCCCC1=C(O)C(=O)C=C(O)C1=O` [Embelin] + O=C(c1cc(Cc2n[nH]c(=O)c3ccccc23)ccc1F)N1CCN(C(=O)C2CC2)CC1 [Olaparib] (partner 8 µM), the relative viability in assay [5] (first compound 0.08 µM) is 1; in assay [5] (first compound 0.8 µM), 0.904; in assay [5] (first compound 2.53 µM), 1.14; in assay [5] (first compound 8 µM) it was 1.21; in assay [1] (first compound 0.08 µM) it was 0.987; in assay [1] (first compound 0.8 µM), 1.01. The relative viability in assay [1] (first compound 2.53 µM) came out at 0.994; in assay [1] (first compound 8 µM) it was 0.987; in assay [2] (first compound 0.08 µM), 0.457; in assay [2] (first compound 0.8 µM), 0.442; in assay [2] (first compound 2.53 µM), 0.388; in assay [2] (first compound 8 µM) it was 0.286. In addition, the relative viability is 0.589 in assay [3] (first compound 0.08 µM); 0.682 in assay [3] (first compound 0.8 µM); 0.573 in assay [3] (first compound 2.53 µM); 0.655 in assay [3] (first compound 8 µM); 0.32 in assay [4] (first compound 0.08 µM); 0.187 in assay [4] (first compound 0.8 µM). Besides, the relative viability in assay [4] (first compound 2.53 µM) is 0.424; in assay [4] (first compound 8 µM) it was 0.366.
